The text below walks through data of US20250186437A1, “CARBOLINE COMPOUNDS AND USE THEREOF” (PTC Therapeutics, Inc., priority 2021, published 2025).

What is called pIC50 is −log10 of the IC50, conventionally taken in molar units. The low end stands for a high IC50, the high end for a low IC50.

pIC50: −log10 of the molar value.

Assay [1] has as its system MOLM-13 cells. The assay is described as follows: MOLM-13 Uridine Rescue Assay. The format is cell-based. As to conditions: Homo sapiens; MOLM-13 cell proliferation with 100 μM Uridine added, 72 Hours of culture. Here is the method:
The following assay was conducted to measure proliferation of MOLM-13 cells in the presence of each compound studied. This assay was included as an indicator of DHODH inhibition, as growth of MOLM-13 cells is known to depend on synthesis of pyrimidines using the de novo pathway, which can be blocked by inhibition of DHODH. • 1. MOLM-13 cells were cultured in RPMI 1640 medium+10% Fetal Bovine Serum (FBS). Only low passage cells (<20) were used for the compound tests • 2. On day 1, Log-phase growing Molm-13 Cells were counted and diluted to 10^5 cells/mL in RPMI 1640 medium+10% FBS • 3. 100 μL of diluted MOLM-13 cells in 96 well white plates were seeded, for a final density of 10^4 cells/well. • 4. 0.5 μL of pre-diluted 200× compounds or DMSO control was added to each well. The final DMSO concentration was 0.5%. • 5. After 72 Hours of culture at 37° C., 5% CO2, the plates were taken out and cooled to RT, then 50 μL CellTiter-Glo® (Promega) was added, and the composition was mixed at RT for 10 minutes. • 6. The plates were then read by ViewLux (Speed-fast, Gain-High, Bining-1X, 5 seconds).
Several compounds were also tested in a Uridine rescue assay. In the Uridine rescue assay, using the procedure in Example 1 above, an additional plate of MOLM-13 cell cultures was prepared, to which 100 μM of Uridine was added in step 3 of the process.

The test system of assay [2] is MOLM-13 cells. The assay is described as follows: MOLM-13 Cell Proliferation Assay (indicator of DHODH inhibition). As to conditions: Homo sapiens, 72 Hours of culture, CellTiter-Glo, no uridine. The format is cell-based. An outline of the steps: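 Proliferation readout via CellTiter-Glo luminescence after 72 h compound treatment (37 °C, 5% CO2, 0.5% DMSO) of MOLM-13 cells seeded at 10^4 per well in RPMI 1640/10% FBS, used as a DHODH-inhibition indicator since these cells rely on de novo pyrimidine synthesis.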
(ATP-based viability assays read luminescence as a measure of living cells.)

For the compound `Cc1ccc(C2c3[nH]c4cc(F)c(Cl)cc4c3CCN2c2nccc(C(F)(F)F)n2)cc1` (centres unmarked) [Compound 72, 6-chloro-7-fluoro-1-(4-methylphenyl)-2-[4-(trifluoromethyl)pyrimidin-2-yl]-2,3,4,9-tetrahydro-1H-pyrido[3,4-b]indole], the figures for the pIC50 in the assay with MOLM-13 cells [1] and in the assay with MOLM-13 cells [2] were 4.73 and 8.46, respectively.
On the same counts, the results for `Fc1cc2[nH]c3c(c2cc1Cl)CCN(c1nccc(C(F)(F)F)n1)C3c1cccc(F)c1F` (centres unmarked) [Compound 108, 6-chloro-1-(2,3-difluorophenyl)-7-fluoro-2-[4-(trifluoromethyl)pyrimidin-2-yl]-2,3,4,9-tetrahydro-1H-pyrido[3,4-b]indole] are 5.08 and 8.72.
On the same counts, the results for `Fc1cc2[nH]c3c(c2cc1Cl)CCN(c1nc(C(F)(F)F)cc(C(F)(F)F)n1)C3c1cccc(F)c1F` (centres unmarked) [Compound 157, 2-[4,6-bis(trifluoromethyl)pyrimidin-2-yl]-6-chloro-1-(2,3-difluorophenyl)-7-fluoro-2,3,4,9-tetrahydro-1H-pyrido[3,4-b]indole] are 4.83 and 9.22.
On to `Cc1ccc(C2c3[nH]c4ccc(Cl)c(F)c4c3CCN2c2nccc(C(F)(F)F)n2)c(F)c1F` (centres unmarked) [Compound 197, 6-chloro-1-(2,3-difluoro-4-methylphenyl)-5-fluoro-2-[4-(trifluoromethyl)pyrimidin-2-yl]-2,3,4,9-tetrahydro-1H-pyrido[3,4-b]indole], for which the pIC50 was 4.76 in the assay on MOLM-13 cells [1] and 8.96 in the assay with MOLM-13 cells [2].
With `Cc1cc(C(F)(F)F)nc(N2CCc3c([nH]c4ccc(Cl)cc34)C2c2ccc(C)c(F)c2F)n1` (centres unmarked) [Compound 213, 6-chloro-1-(2,3-difluoro-4-methylphenyl)-2-[4-methyl-6-(trifluoromethyl)pyrimidin-2-yl]-2,3,4,9-tetrahydro-1H-pyrido[3,4-b]indole], the values for the pIC50 in the assay with MOLM-13 cells [1] and in the assay with MOLM-13 cells [2] were 5.12 and 9.00, respectively.
For `Cc1ccc(C2c3[nH]c4c(O)cc(Cl)cc4c3CCN2c2nccc(C(F)(F)F)n2)c(F)c1F` (centres unmarked) [Compound 220, 6-chloro-1-(2,3-difluoro-4-methylphenyl)-2-[4-(trifluoromethyl)pyrimidin-2-yl]-2,3,4,9-tetrahydro-1H-pyrido[3,4-b]indol-8-ol], the figures for the pIC50 in the assay on MOLM-13 cells [1] and in the assay on MOLM-13 cells [2] were 5.17 and 8.96, respectively.
On the same counts, the results for `Cc1ccc(C2c3[nH]c4c(N)cc(Cl)cc4c3CCN2c2nccc(C(F)(F)F)n2)cc1` (centres unmarked) [Compound 231, 6-chloro-1-(4-methylphenyl)-2-[4-(trifluoromethyl)pyrimidin-2-yl]-2,3,4,9-tetrahydro-1H-pyrido[3,4-b]indol-8-amine] are 4.72 and 8.96.
As for `Cc1ccc([C@H]2c3[nH]c4ccc(Cl)cc4c3CCN2c2nccc(C(F)(F)F)n2)c(F)c1F` [Compound 233, (1S)-6-chloro-1-(2,3-difluoro-4-methylphenyl)-2-[4-(trifluoromethyl)pyrimidin-2-yl]-2,3,4,9-tetrahydro-1H-pyrido[3,4-b]indole], the pIC50 in the assay on MOLM-13 cells [1] is 4.91; in the assay on MOLM-13 cells [2] it was 9.40.
Taken in the same sequence, the figures for `Cc1ccc(C2c3[nH]c4c(N)cc(Cl)cc4c3CCN2c2nccc(C(F)(F)F)n2)c(F)c1F` (centres unmarked) [Compound 248, 6-chloro-1-(2,3-difluoro-4-methylphenyl)-2-[4-(trifluoromethyl)pyrimidin-2-yl]-2,3,4,9-tetrahydro-1H-pyrido[3,4-b]indol-8-amine] were 5.07 and 9.30.
On the same counts, the results for `Cc1nc(C)nc(N2CCc3c([nH]c4ccc(Cl)cc34)C2c2ccc(C)c(F)c2F)n1` (centres unmarked) [Compound 253, 6-chloro-1-(2,3-difluoro-4-methylphenyl)-2-(4,6-dimethyl-1,3,5-triazin-2-yl)-2,3,4,9-tetrahydro-1H-pyrido[3,4-b]indole] are 5.18 and 8.72.
With `Cc1ccc(C2c3[nH]c4ccc(Cl)cc4c3CCN2c2nccc(C(F)(F)F)n2)c(F)c1` (centres unmarked) [Compound 254, 6-chloro-1-(2-fluoro-4-methylphenyl)-2-[4-(trifluoromethyl)pyrimidin-2-yl]-2,3,4,9-tetrahydro-1H-pyrido[3,4-b]indole], the pIC50 is 5.16 in the assay on MOLM-13 cells [1] and 8.66 in the assay on MOLM-13 cells [2].
On the same counts, the results for `N#Cc1ccc(C2c3[nH]c4ccc(Cl)cc4c3CCN2c2nccc(C(F)(F)F)n2)c(F)c1` (centres unmarked) [Compound 255, 4-{6-chloro-2-[4-(trifluoromethyl)pyrimidin-2-yl]-2,3,4,9-tetrahydro-1H-pyrido[3,4-b]indol-1-yl}-3-fluorobenzonitrile] are 4.81 and 8.66.
Take `Cc1ccc(C2c3[nH]c4ccc(Br)cc4c3CCN2c2nccc(C(F)(F)F)n2)cc1` (centres unmarked) [Compound 264, 6-bromo-1-(4-methylphenyl)-2-[4-(trifluoromethyl)pyrimidin-2-yl]-2,3,4,9-tetrahydro-1H-pyrido[3,4-b]indole]: the pIC50 was 4.68 with MOLM-13 cells [1] and 9.05 with MOLM-13 cells [2].
With `Cc1ccc(C2c3[nH]c4ccc([N+](=O)[O-])cc4c3CCN2c2nccc(C(F)(F)F)n2)cc1` (centres unmarked) [Compound 265, 1-(4-methylphenyl)-6-nitro-2-[4-(trifluoromethyl)pyrimidin-2-yl]-2,3,4,9-tetrahydro-1H-pyrido[3,4-b]indole], the pIC50 in the assay with MOLM-13 cells [1] is 4.97; in the assay with MOLM-13 cells [2], 8.52.
Taken in the same sequence, the figures for `Cc1ccc2[nH]c3c(c2c1)CCN(c1nccc(C(F)(F)F)n1)C3c1ccc(C)c(F)c1F` (centres unmarked) [Compound 271, 1-(2,3-difluoro-4-methylphenyl)-6-methyl-2-[4-(trifluoromethyl)pyrimidin-2-yl]-2,3,4,9-tetrahydro-1H-pyrido[3,4-b]indole] were 4.64 and 8.43.
On the same counts, the results for `Cc1cc(N)c2[nH]c3c(c2c1)CCN(c1nccc(C(F)(F)F)n1)C3c1ccc(C)c(F)c1F` (centres unmarked) [Compound 272, 1-(2,3-difluoro-4-methylphenyl)-6-methyl-2-[4-(trifluoromethyl)pyrimidin-2-yl]-2,3,4,9-tetrahydro-1H-pyrido[3,4-b]indol-8-amine] are 5.11 and 8.10.
Taken in the same sequence, the figures for `Cc1ccc(C2c3[nH]c4ccc(Cl)c(N)c4c3CCN2c2nccc(C(F)(F)F)n2)c(F)c1F` (centres unmarked) [Compound 273, 6-chloro-1-(2,3-difluoro-4-methylphenyl)-2-[4-(trifluoromethyl)pyrimidin-2-yl]-2,3,4,9-tetrahydro-1H-pyrido[3,4-b]indol-5-amine] were 4.53 and 8.12.
`COCCOc1ncc(C2c3[nH]c4ccc(Cl)cc4c3CCN2c2nc(C(F)(F)F)nc(C(F)(F)F)n2)cn1` (centres unmarked) [Compound 536, 2-[4,6-bis(trifluoromethyl)-1,3,5-triazin-2-yl]-6-chloro-1-[2-(2-methoxyethoxy)pyrimidin-5-yl]-2,3,4,9-tetrahydro-1H-pyrido[3,4-b]indole]: the pIC50 in the assay on MOLM-13 cells [2] is 8.92.
Still for that read-out and setting: the same measure for `O=C(O)CCNc1ncc([C@H]2c3[nH]c4ccc(Cl)cc4c3CCN2c2nc(C(F)(F)F)nc(C(F)(F)F)n2)cn1` [Compound 537, N-(5-{(1S)-2-[4,6-bis(trifluoromethyl)-1,3,5-triazin-2-yl]-6-chloro-2,3,4,9-tetrahydro-1H-pyrido[3,4-b]indol-1-yl}pyrimidin-2-yl)-β-alanine]: 8.40; for `O=C(O)CCCNc1ncc([C@H]2c3[nH]c4ccc(Cl)cc4c3CCN2c2nc(C(F)(F)F)nc(C(F)(F)F)n2)cn1` [Compound 538, 4-[(5-{(1S)-2-[4,6-bis(trifluoromethyl)-1,3,5-triazin-2-yl]-6-chloro-2,3,4,9-tetrahydro-1H-pyrido[3,4-b]indol-1-yl}pyrimidin-2-yl)amino]butanoic acid]: 9.40; for `O=C(O)COCCNc1ncc([C@H]2c3[nH]c4ccc(Cl)cc4c3CCN2c2nc(C(F)(F)F)nc(C(F)(F)F)n2)cn1` [Compound 539, {2-[(5-{(1S)-2-[4,6-bis(trifluoromethyl)-1,3,5-triazin-2-yl]-6-chloro-2,3,4,9-tetrahydro-1H-pyrido[3,4-b]indol-1-yl}pyrimidin-2-yl)amino]ethoxy}acetic acid]: 7.92.
Regarding `Cc1ccc(C2c3[nH]c4cc(F)c(Cl)cc4c3CCN2c2nc(Cl)cc(N(C)C)n2)cc1` (centres unmarked) [Cpd 17, 6-chloro-2-[6-chloro-7-fluoro-1-(4-methylphenyl)-1,3,4,9-tetrahydro-2H-pyrido[3,4-b]indol-2-yl]-N,N-dimethylpyrimidin-4-amine], in the assay on MOLM-13 cells [2], the pIC50 was 7.74.
Compound `Cc1ccc(C2c3[nH]c4cc(F)c(Cl)cc4c3CCN2c2nc(C)c(F)c(C)n2)cc1` (centres unmarked) [Cpd 106, 6-chloro-7-fluoro-2-(5-fluoro-4,6-dimethylpyrimidin-2-yl)-1-(4-methylphenyl)-2,3,4,9-tetrahydro-1H-pyrido[3,4-b]indole] showed a pIC50 in the assay on MOLM-13 cells [2] of 8.13.
For the compound `Fc1c(Cl)ccc(C2c3[nH]c4ccc(Cl)cc4c3CCN2c2nccc(C(F)(F)F)n2)c1F` (centres unmarked) [Cpd 144, 6-chloro-1-(4-chloro-2,3-difluorophenyl)-2-[4-(trifluoromethyl)pyrimidin-2-yl]-2,3,4,9-tetrahydro-1H-pyrido[3,4-b]indole], in the assay with MOLM-13 cells [2], the pIC50 is 9.15.
